Test results reported in patent US20240166593A1, “LIPIDS SUITABLE FOR NUCLEIC ACID DELIVERY” (RAMOT AT TEL-AVIV UNIVERSITY LTD., priority 2021, published 2024).
“And” between values parts separate entries of the source, which are not always exact repeats. Equal values may be shown once.

Experiments:
[1] = Physico-chemical characterization of LNPs made of different ionizable lipids (DLS, zeta potential); format: physicochemical
Procedure: Various LNPs comprising different ionizable lipid were prepared by using microfluidic micro mixture (Precision NanoSystems, Vancouver, BC) device. Briefly, one volume of lipid mixtures (ionizable lipid, DSPC, Cholesterol and DMG-PEG at 30:18:49.5:2.5 mole ratios) in ethanol and three volumes of mRNA containing acetate buffer solutions were mixed through the micromixer at a combined flow rate of 12 mL/min. The resultant mixture was dialyzed against PBS (pH 7.4) for 16 hours to remove ethanol.
The prepared LNPs comprising different ionizable lipids were characterized using transmission electron microscopy (TEM) analysis (FIGS. 10A-10G), dynamic light scattering (DLS) and zeta potential measurements. Table 1 represents the measured hydrodynamic diameter (Z-ave; d.nm), polydispersity index (PDI) and zeta potential (mV) of various LNPs. The resultant LNPs were spherical and uniformly distributed with a hydrodynamic diameter size of ˜50-260 nm, depending on the ionizable lipid used. Additionally, LNP surface potentials were negative.
In addition, DSL1-3 LNPs comprising different amounts of PEG (1.5 mol % or 2.5 mol %) were compared for bio-distribution. Mice treated and sacrificed; organs prepared for luciferase expression analysis as detailed above. […] Next, as shown in FIGS. 11M-11P, mRNA-LNPs composed of DSL1-4, 1-5, 2-2 or 2-50 lipids were compared to DSPC or DOPE as co-lipids. […] Tables 2-5 detail the physio-chemical properties of LNPs made of either DOPE or DSPC (the measured hydrodynamic diameter (Z-ave; d.nm), polydispersity index (PDI)).

luciferase expression [2] = experiment: In-vivo delivery of mRNA encoding luciferase using LNPs (IVIS of organs); set-up: species or system Mice; conditions: for bio-distribution of LNPs (luciferase expression by IVIS): mLUC-LNPs IV 0.5 mg/kg, 7 hr post administration, lung, liver, spleen, kidney; for bio-distribution on increasing ionizable lipid mole ratio (40% vs 30%): mRNA-LNPs IV; for luciferase activity of LNPs with DOPE as co-lipid compared to DSPC containing LNPs: mRNA-LNPs in mice
[3] = test system: CD11c positive splenic dendritic cells; experiment: mCRE-LNPs in Ai9 mice, FACS for tdTomato expression; format: in vivo; conditions: mCRE-LNPs IV 0.5 mg/kg, 72 hr post administration
Procedure: (§1) Ai9 mice that express robust tdTomato fluorescence following cre-mediated recombination were injected intravenously with the various mCRE-LNPs at 0.5 mg/kg dose. Mice were sacrificed 72 hr post administration and peritoneal macrophages and spleenocytes were isolated and analyzed by FACS for tdTomato expression (FIGS. 13 and 14).

peritoneal macrophages = experiment: as above; format: in vivo; conditions: mCRE-LNPs IV 0.5 mg/kg, 72 hr post administration
Procedure: as §1

mice = experiment: In vivo safety analysis of mRNA-LNPs (serum liver enzymes); conditions: mRNA-LNPs IV; serum after 2 hr and 24 hr; compared to untreated mice
Procedure: After 2 hr and 24 hr blood was collected and serum samples were analyzed for levels of the liver enzymes alkaline phosphatase (Alk Phos), serum glutamic-oxaloacetic transaminase (SGOT) or serum glutamic pyruvic transaminase (SGPT).
Safety is an important limitation for clinical development of LNPs. Therefore, mRNA-LNPs system made of DSL2-50 and DSL1-3 lipids were tested and evaluated for the toxicity in mice.

SARS-CoV-2 = conditions: IM day 0 and booster day 21, serum 3 weeks after booster; BALB/c and C57BL6 mice
Procedure: To evaluate the efficiency of our LNP system for vaccine delivery, mRNA against human Fc conjugated RBD (RBD-hFc mRNA) was chosen. LNPs encapsulated RBD-mRNA administered IM in to BALB/c mice (FIG. 19) and C57BL6 mice (FIG. 20) on day ‘0’ and a booster dose on day ‘21’. Serum was collected on day ‘21’ (pre boost) and 3 weeks after the booster dose (post boost) and analyzed for humoral response. […] The cellular response (SARS-CoV-2 specific T-cell response) was measured by ELISPOT assay for IFN-γ response.

[4] = Stability of mRNA-LNPs stored at 2-8° C. (size, PDI); format: physicochemical
luciferase expression [5] = experiment: Luciferase expression in mouse organs after storage of mRNA-LNPs (IVIS); format: in vivo, mice; conditions: mLuc LNPs stored 210 days at 2-8° C.
[6] = test system: Luciferase and mCherry expression; experiment: Delivery of two types of mRNA encapsulated in a single LNP (IVIS of livers); format: in vivo; conditions: mice livers; compared to SM102-LNPs
tdTomato expression = experiment: Biodistribution of DSL1-2 LNPs compared to Dlin-MC3-DMA LNPs (IVIS of spleen and liver); format: in vivo, Ai9 mice; conditions: mCRE-LNPs IV 0.5 mg/kg, 72 hr post administration
Procedure: Ai9 mice that express robust tdTomato fluorescence following cre-mediated recombination were injected intravenously with either Dlin-MC3-DMA or DSL1-2 mCRE-LNPs at 0.5 mg/kg dose. Mice were sacrificed 72 hr post administration followed by spleen and liver isolation and analyzed by IVIS for tdTomato expression.

[7] = mRNA LNPs: ionizable lipid, DSPC, Cholesterol, DMG-PEG 30:18:49.5:2.5 mole ratio

Row | SMILES | PDI (polydispersity index) [1, 7] | Z-ave (hydrodynamic diameter) [1, 7] [nm·days] | Zeta (zeta potential) [1, 7] [mV] | bio-distribution of LNPs (luciferase expression by IVIS) (luciferase expression [2]) | further results
1 | CCCCC/C=C\C/C=C\CCCCCCCCN(CCO)CCCCCCCCCC(=O)ON(CCCCCCCCCCCC)CCCCCCCCCCCC [DSL2-1] | 0.24 | 49.2 | −6.97 | mostly taken-up by the liver | 
2 | CCCCC/C=C\C/C=C\CCCCCCCCN(CCO)CCCCCCCCCCCOC(=O)CCCCCCCCCN(O)CCCCCCCCCCCC [DSL1-3] | 0.17 | 164.8 | −3.90 | preferentially taken up by spleen | uptake by CD11c positive splenic dendritic cells (tdTomato expression) [3]: ~18%; peritoneal macrophages expressing tdTomato (peritoneal macrophages): ~20%; LNP distribution and expression, 1.5 mol % vs 2.5 mol % PEG (luciferase expression [2]; mLUC-LNPs IV, two formulations compared): no significant different observed; toxicity (levels of liver enzymes Alk Phos, SGOT, SGPT) (mice): not toxic
3 | CCCCCCCCCCCCN(CCO)CCCCCCCCCC(=O)OCCOC(=O)CCCCCCCCCN(CCO)CCCCCCCCCCCC [DSL1-5] |  |  |  | preferentially taken up by spleen | bio-distribution on increasing ionizable lipid mole ratio (40% vs 30%) (luciferase expression [2]): altering the bio-distribution from the spleen to the liver
4 | CCCCCCCCCCCCN(CCCCCCCCCCCC)CC(=O)ON(CCCCCCCCCCCC)CCCCCCCCCCCC [DSL4-2] | 0.64 | 72.4 | −5.00 | no effect | 
5 | CCCCCCN(CCCCCC)CCOC(=O)CCCCCCCCCN(CCO)CCCCCCCCCC(=O)OCCN(CCCCCC)CCCCCC [DSL2-50] | 0.04 | 80.3 | −2.68 |  | post boost antibody response against SARS-CoV-2 (SARS-CoV-2): robust antibody response; bio-distribution on increasing ionizable lipid mole ratio (40% vs 30%) (luciferase expression [2]): no significant changes in bio-distribution; luciferase activity of LNPs with DOPE as co-lipid compared to DSPC containing LNPs (luciferase expression [2]; IVIS): enhanced luciferase activity observed in the liver; LNP bio-distribution, intramuscular (IM) administration (luciferase expression [2]; mRNA-LNPs, IVIS): also reaching the liver apart from the injection site of the muscle; LNP bio-distribution, intravenous (IV) administration (luciferase expression [2]; mRNA-LNPs, IVIS): distributing to the liver; toxicity (levels of liver enzymes Alk Phos, SGOT, SGPT) (mice): not toxic; time over which LNPs are stable ([4]; mCherry LNPs stored at 2-8° C.): ≥ 3 months; size of the LNPs compared to freshly prepared LNPs ([4]; mCherry LNPs, after 3 months at 2-8° C.): slightly increased; time over which LNPs are stable ([4]; mLuc LNPs stored at 2-8° C.): ≥ 7 months; size and distribution of the LNPs compared to freshly prepared LNPs ([4]; mLuc LNPs, 210 days (7 months) at 2-8° C.): did not change; luciferase activity in the liver after storage (luciferase expression [5]): retain its luciferase activity in the liver; amount of Luciferase and mCherry expression [6]: high
6 | CCCCCCCCCCCCN(CCO)CCCCCCCCCC(=O)ON(CCCCCCCCCCCC)CCCCCCCCCCCC [DSL2-2] | 0.23 | 50.8 | −5.31 | mostly taken-up by the liver | Z-ave (hydrodynamic diameter) ([1]; LNPs with DOPE as co-lipid): 72.5 nm·days and 88.5 nm·days; Z-ave (hydrodynamic diameter) ([1]; LNPs with DSPC as co-lipid): 50.8 nm·days and 80.3 nm·days; luciferase activity of LNPs with DOPE as co-lipid compared to DSPC containing LNPs (luciferase expression [2]; IVIS): enhanced luciferase activity observed in the liver
7 | CCCCC/C=C\C/C=C\CCCCCCCCC(CCCCCCCC/C=C\C/C=C\CCCCC)OC(=O)CCCN(C)C [Dlin-MC3-DMA] |  |  |  |  | organ of accumulation (tdTomato expression, IVIS) (tdTomato expression): accumulated in the liver
8 | CCCCC/C=C\C/C=C\CCCCCCCCN(CCO)CCCCCCCCCCOC(=O)CCCCCCCCCN(CCO)CCCCCCCC/C=C\C/C=C\CCCCC [DSL1-1] | 0.23 | 187.3 | −6.37 | distributed to both liver and spleen | uptake by CD11c positive splenic dendritic cells (tdTomato expression) [3]: ~3%; peritoneal macrophages expressing tdTomato (peritoneal macrophages): ~60%
9 | CCCCC/C=C\C/C=C\CCCCCCCCN(CCO)CCCCCCCCCCOC(=O)CCCCCCCCCN(CCO)CCCCCCCCCC(=O)OCCCCCCCCCCN(CCO)CCCCCCCC/C=C\C/C=C\CCCCC [DSL3c-1] | 0.45 | 261.9 | −2.68 | distributed to both liver and spleen | 
10 | CCCCCCCCCCCCN(CCO)CCCCCCCCCCOC(=O)CCCCCCCCCN(CCO)CCCCCCCCCCCC [DSL1-4] | 0.13 | 188.7 | −1.43 | preferentially taken up by spleen | PDI ([1]; LNPs with DOPE as co-lipid): 0.1; Z-ave (hydrodynamic diameter) ([1]; LNPs with DOPE as co-lipid): 92.3 nm·days; PDI ([1]; LNPs with DSPC as co-lipid): 0.15; Z-ave (hydrodynamic diameter) ([1]; LNPs with DSPC as co-lipid): 190.9 nm·days; luciferase activity of LNPs with DOPE as co-lipid compared to DSPC containing LNPs (luciferase expression [2]; IVIS): loses its luciferase activity
11 | CCCCC/C=C\C/C=C\CCCCCCCCN(CCO)CCCCCCCCCCOC(=O)CCCCCCCCCN(CCO)CCCCCCCCCCCC [DSL1-2] | 0.17 | 197.2 | −7.52 |  | uptake by CD11c positive splenic dendritic cells (tdTomato expression) [3]: ~12%; peritoneal macrophages expressing tdTomato (peritoneal macrophages): about 90%
12 | CCCCCCN(CCCCCC)OC(=O)CCCCCCCCCN(CCO)CCCCCCCCCC(=O)ON(CCCCCC)CCCCCC [DSL2-49] | 0.07 | 63.9 | −5.65 |  | 
